Experimental data from patent US10240133B2, “ERK-derived peptides and uses thereof” (Yeda Research and Development Co. Ltd., priority 2013, dated 2019).

Columns and labels:
[1] = tested on: PLX-4032 and U0126 resistant A2352 melanoma cells; assay: Proliferation of inhibitor-resistant melanoma cells; type: cell-based; conditions: 10 μM, 72 h
Procedure: (A) A2352 melanoma cells resistant to either PLX4032 (B-Raf) or U0126 (MEK) inhibitors were treated with DMSO, EPE or Scr peptide (10 μM), U0126 (10 μM), PLX4032 (1 μM), Wortmannin (0.5 μM) or Taxol (25 μg/ml). Presented as percent of viable cells at 72 h/initial cell number. […] Methylene blue assay was performed to quantify viable cells. Experiments were done twice in triplicate. Data presented as fold change.
All cells, except of MCF-10A, were seeded into 12-well cell plates in 1% FBS medium. MCF-10A cells were seeded in their complete medium diluted 5 fold. DMSO, Scr peptide, EPE peptide, or U0126 (final concentration of 10 μM each) were added to the appropriated wells four hours later. Every day medium was changed to fresh one containing the same agents. The number of viable cells was measured by Methylene Blue assay at 72 h after cell seeding. Shortly, cells were fixed with 4% Formaldehyde for 2 h at 23° C., washed once with 0.1M Borate Buffer pH 8.5 and stained with of 1% Methylene Blue in 0.1M Borate Buffer for 10 min. Color was extracted by adding 0.1 M HCl for 3 h at 23° C., and examined at 595 nm.
A2352 cells were supplemented with either PLX4032 (B-Raf inhibitor, 1 μM), or U0126 (MEK inhibitor, 10 μM) for 45 days. […]

ERK1/2 = assay: Nuclear translocation of ERK (fluorescence microscopy, subcellular fractionation); type: cell-based
Procedure: FIGS. 1A-1F illustrate that EPE peptide prevents nuclear translocation of ERK1. A2352 (A), MDA-MB-231 (B) HeLa (C), T47D (D), NHEM-AD (E) and HB2 (F) cells were serum-starved, pretreated with the EPE peptides, Scr peptide (10 μM, 2 h) DMSO and then either stimulated with TPA (250 nM, 15 min) or left untreated (NS) as control. The cells were stained with αgERK1/2 Ab and DAPI. Scale-bar—15 μm.
FIGS. 12A-12D illustrate that the EPE peptide inhibits the nuclear translocation of ERK1/2. Serum-starved (0.1% FCS, 16 hr) A2352 (FIG. 12A), HeLa (FIG. 12B), MDA-MB-231 (FIG. 12C), or LOXMVI (FIG. 12D) cells were pretreated with EPE or scrambled peptides (10 μM, 2 hr). Cells were then stimulated with EGF (50 ng/ml) or left untreated, and then harvested. Subcellular fractionation of cytoplasm and nucleus was performed as below, and fractions were subjected to Western blot analysis with the indicated Abs. Subcellular Fractionation was performed as follows: Harvested cells were resuspended in 200 μl of buffer H containing 0.1% Nonidet P-40. The lysates were mixed vigorously and centrifuged immediately to yield supernatants containing the cytosolic fraction. Nuclear proteins were extracted by resuspending the nuclear pellets in 200 μl of extraction buffer, waiting on ice for 5 min, brief sonication (2×5 sec, 40 W, 4° C.), vigorous mixing, and centrifugation. Both cytosolic and nuclear fractions were subjected to Western blotting.
A2185 (A) and A2352 (B) B-Raf melanoma cells were serum-starved (16 hours, 0.1% FBS), and then either pretreated with the EPE peptides (10 μM, 2 hours) or left untreated. Then, the cells were stimulated with TPA ([…], 20 min), or left untreated (NS) DMSO as control. The cells were stained with either anti ERK1 (Santa Cruz, C16) or anti ERK2 (C14, Santa Cruz) Abs and DAPI. (C) Quantification of the number of cell in which ERK1 or ERK2 were mostly (>80%) localized in the nucleus was performed by counting 5 fields containing 100 cells per field.
FIGS. 15A-15B illustrate that the EPE peptide prevents nuclear accumulation/translocation of ERK1/2 in PLX4032-resistant melanoma cells. A2352 that were made resistant to PLX4032 (as described under Material and Methods) and A4132 PLX4032 resistant melanoma cell from patient were serum-starved (16 hours, 0.1%), pretreated with the EPE or scrambled peptide (10 μM, 2 hours) and then either stimulated with TPA (100 nM, 20 min) or left untreated (NT) as control. The cells were stained with αgERK1/2 Ab and DAPI.
Cells were fixed in 3% paraformaldehyde in PBS (20 min, 23° C.), and then permeabilized and blocked with 0.2% Triton X-100 in PBS-BSA (2%) for 20 min at 23° C. The fixed cells were sequentially incubated with appropriated Abs, (diluted in 10 μg/ml BSA/PBS) for 1 h, followed by either Cy-2 or rhodamine-conjugated secondary Abs and DAPI (diluted in BSA/PBS, 1:200) for 1 h. To follow the subcellular localization of the biotin-conjugated peptides, cells were incubated with Avidin-FITC (diluted in BSA/PBS 1:400) and DAPI. Slides were analyzed and photographed by a fluorescent microscope (Nikon, Japan, 600× magnification).

## GQLNHILGILGEPEQED (Synthetic peptide (EPE)) [EPE peptide, NTS-derived peptide with phosphomimetic EPE motif]
[1]
  cell growth: able to reduce cell growth
ERK1/2
  inhibitory effect on nuclear translocation of ERK, compared among SPS, EPE and APA peptides: stronger than that of the other two
ERK1/2; A2185 and A2352 B-Raf melanoma cells
  inhibition of ERK1 versus ERK2 translocation: No significant differences between the inhibition of ERK1 and ERK2
ERK1/2; A2352, HeLa, MDA-MB-231, LOXMVI, 10 μM, 2 hr, EGF
  nuclear translocation of ERK1/2 by subcellular fractionation: same trend of inhibition
ERK1/2; PLX4032-resistant A2352 and A4132 cells, 10 μM, 2 hours, TPA
  amount of nuclear ERK1/2 in resistant melanoma cells: reduced the amount of nuclear ERK1/2 both before and after stimulation
